Experimental data from patent publication US8101782B2, “Compounds that inhibit cholinesterase” (priority 2007, dated 2012).
Like-named read-outs stand apart in the source and are kept apart here.

How the values were obtained:
[1] = test system: male CD IGS (Sprague Dawley derived) rats; assay: Measurement of hypothermia (rectal temperature); type: in vivo; details: Rattus norvegicus, sc, read-out: Hypothermia MED
Protocol: The induction of hypothermia was determined for compounds of the invention according to the methods described in Freedman, et al., European Journal of Pharmacology, 187 (1990), 193-199, which is incorporated by reference herein. Dose range and time course for cholinergic effects of the compounds of the invention was also determined. […]
(§1) The dose range and time course for cholinergic effects of the compounds of the invention was determined as described below.
(§2) Subjects: Two hundred eight male CD IGS (Sprague Dawley derived) rats were received at 126-150 grams and maintained four per cage on a regular light/dark cycle (lights on 0600-1800) with ad libitum food and water for about 1 week before commencement of experimentation. Apparatus: Injection was done with a 25-gauge ⅝-inch needle on a 1-mL tuberculin syringe. Observation was done in a 5½-×10-inch polycarbonate rat housing cage. Temperature was taken with a rat rectal probe on a Model BAT-12 electronic thermometer. Compound Preparation: Test compounds were dissolved for example, in 0.9% saline. Concentrations for lower doses were prepared by taking aliquots from higher concentrations and diluting. Injection volumes were 1 mL/kg, if the test compound was sufficiently soluble. If less soluble, maximum injection volume were 5 mL/kg. Route of administration was s.c. As sample protocol is as follows: Treatment Groups included (N=3, with 6 for Saline)
(§3) Procedure: The rats were brought to the test room in the home cage. Baseline temperature were be taken just before injection. After injection s.c., the rat was placed in the observation cage. At 0.5, 1, 2, and 4 hours after injection, it was observed briefly for gross signs; salivation was scored as absent, clearly present, or copious; and rectal temperature was taken. In observation for gross signs, special attention was paid to fasciculation (muscle twitch), tremor/ataxia, and abnormal gait.

[2] = molecular target: BuChE (Homo sapiens, UniProt P06276); assay: In vitro screening assay, BuChE inhibition; type: biochemical; details: for BuChEI (%) 1 μM: 1 μM compound; for BuChEI (%) 10 μM: 10 μM compound
Chain of BuChE (P06276 29-602): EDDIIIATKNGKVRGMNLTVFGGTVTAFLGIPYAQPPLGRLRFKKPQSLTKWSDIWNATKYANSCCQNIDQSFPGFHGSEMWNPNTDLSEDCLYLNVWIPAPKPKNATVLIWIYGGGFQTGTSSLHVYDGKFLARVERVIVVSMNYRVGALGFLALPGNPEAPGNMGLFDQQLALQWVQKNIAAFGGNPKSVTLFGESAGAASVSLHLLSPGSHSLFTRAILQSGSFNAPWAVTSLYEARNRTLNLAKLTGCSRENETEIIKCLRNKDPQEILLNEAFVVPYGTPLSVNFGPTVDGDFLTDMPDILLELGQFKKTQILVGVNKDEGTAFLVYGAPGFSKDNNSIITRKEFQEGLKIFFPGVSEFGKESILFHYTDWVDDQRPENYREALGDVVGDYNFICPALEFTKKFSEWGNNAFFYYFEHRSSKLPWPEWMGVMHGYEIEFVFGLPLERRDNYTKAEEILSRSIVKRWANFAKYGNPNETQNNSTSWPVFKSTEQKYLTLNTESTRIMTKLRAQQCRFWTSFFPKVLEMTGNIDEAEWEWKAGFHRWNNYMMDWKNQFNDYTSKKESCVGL
Excerpt: (§4) An in vitro screening assay with compounds of the invention was completed according to the methods described in Ellman G L et al., Biochem Pharmacol., 7:88-95 (1961) and in Nadarajah B, J. Anal. Toxicol., 16:192-193 (1992), both of which are herein incorporated by reference in their entireties.
as §4, with “entireties. The assay method was completed according to the following: […]” for “entireties.”

[3] = test system: male CD IGS (Sprague Dawley derived) rats; assay: Determination of the dose range and time course for cholinergic effects (gross signs, salivation); details: s.c., doses 1, 3, 10, 30 and 100 mg/kg; observed up to 4 hours
Protocol: The induction of hypothermia was determined for compounds of the invention according to the methods described in Freedman, et al., European Journal of Pharmacology, 187 (1990), 193-199, which is incorporated by reference herein. Dose range and time course for cholinergic effects of the compounds of the invention was also determined.
as §1, §2, §3

[4] = molecular target: T1, human recombinant acetylcholinesterase (Homo sapiens, UniProt P22303); assay: Inhibition of acetylcholinesterase in vitro (modified Ellman colorimetric method, Dixon plot); type: biochemical; details: human recombinant AChE, 25° C., 30 minutes preincubation, 0.3 mM acetylthiocholine, pH 8
T1 construct: purchased Sigma Chemical Co (St. Louis, Mo.) C1682
T1 sequence (P22303 32-614): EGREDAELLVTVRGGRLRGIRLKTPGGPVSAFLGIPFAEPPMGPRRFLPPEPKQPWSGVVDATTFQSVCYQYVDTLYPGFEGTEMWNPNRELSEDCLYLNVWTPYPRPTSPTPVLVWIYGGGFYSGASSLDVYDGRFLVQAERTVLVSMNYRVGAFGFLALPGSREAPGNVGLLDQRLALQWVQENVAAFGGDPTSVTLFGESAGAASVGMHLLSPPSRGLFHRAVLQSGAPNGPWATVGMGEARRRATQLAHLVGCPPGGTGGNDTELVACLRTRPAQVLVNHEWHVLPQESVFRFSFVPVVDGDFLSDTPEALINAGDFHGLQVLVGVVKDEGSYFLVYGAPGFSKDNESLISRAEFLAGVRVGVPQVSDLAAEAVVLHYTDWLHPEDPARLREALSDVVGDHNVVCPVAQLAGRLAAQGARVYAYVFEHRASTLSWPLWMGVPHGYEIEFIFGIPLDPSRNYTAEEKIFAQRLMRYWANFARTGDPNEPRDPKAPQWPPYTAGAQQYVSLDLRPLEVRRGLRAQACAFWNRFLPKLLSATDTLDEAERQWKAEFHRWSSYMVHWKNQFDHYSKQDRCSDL

[5] = molecular target: AChE (Homo sapiens, UniProt P22303); assay: In vitro screening assay, AChE inhibition (spectrophotometric quantitation of thiocholine); type: biochemical; details: 700 μM acetylthiocholine, pH 7.4, 25° C.; for AChEI (%) 1 μM: 1 μM compound; for AChEI (%) 10 μM: 10 μM compound
Chain of AChE (P22303 32-614): as above

[6] = minimum effective dose for hypothermia, s.c., temperature at 0.5, 1, 2 and 4 hours after injection

Structure (SMILES) | minimal effective dose [1, 6] [mg/kg] | BuChEI (%) 10 μM [2] [%] | IC50 [4] [µM] | AChEI (%) 10 μM [5] [%] | other results
CCN(C)C(=O)Oc1cccc([C@H](C)N(C)C)c1 [Compound 1, S-rivastigmine, reference compound] | ≤ 0.1 |  |  |  | 
C[C@@H](c1cccc(OC(=O)N[C@@H]2C[C@H]2c2ccccc2)c1)N(C)C [Compound 2, S-rivastigmine-tranylcypromine] | 10 | 67 | 0.2 | 97 | BuChEI (%) 1 μM [2]: 23%; Max Tolerated Dose [3]: 30; AChEI (%) 1 μM [5]: 84%
C[C@@H](c1cccc(OC(=O)N2CCN(C3=Nc4ccccc4Oc4ccc(Cl)cc43)CC2)c1)N(C)C [Compound 3, S-rivastigmine-amoxapine] | 10 |  |  |  | 
C[C@@H](c1cccc(OC(=O)N(C)CCCN2c3ccccc3CCc3ccccc32)c1)N(C)C [Compound 4, S-rivastigmine-desipramine] | 3 |  |  |  | 
C[C@@H](c1cccc(OC(=O)N(C)CCC=C2c3ccccc3CCc3ccccc32)c1)N(C)C [Compound 5, S-rivastigmine-nortriptyline] | ≤ 1 |  |  |  | Max Tolerated Dose [3]: ≧100
C[C@@H](c1cccc(OC(=O)N(C)CCCC2c3ccccc3C=Cc3ccccc32)c1)N(C)C [Compound 6, S-rivastigmine-protriptyline] | 100 |  |  |  | 
C[C@@H](c1cccc(OC(=O)N(C)CCC(Oc2ccc(C(F)(F)F)cc2)c2ccccc2)c1)N(C)C (stereo partly shown) [Compound 7, S-rivastigmine-fluoxetine] | 3 |  |  |  | 
C[C@@H](c1cccc(OC(=O)N(C)CCc2ccccn2)c1)N(C)C [Compound 11, S-rivastigmine-betahistine] |  | 100 | 13.3 | 47 | BuChEI (%) 1 μM [2]: 45%; Max Tolerated Dose [3]: 30; minimal effective dose [1]: < 1 mg/kg
CCOC(=O)C1=C(COCCNC(=O)Oc2cccc([C@H](C)N(C)C)c2)NC(C)=C(C(=O)OC)C1c1ccccc1Cl (stereo partly shown) [Compound 12, S-rivastigmine-amlodipine] |  | 6 | 3.7 | 79 | AChEI (%) 1 μM [5]: 20%
CC(CC1CCCCC1)N(C)C(=O)Oc1cccc([C@H](C)N(C)C)c1 (stereo partly shown) [Compound 13, S-rivastigmine-propylhexedrine] | 10 | 100 |  | 99 | BuChEI (%) 1 μM [2]: 37%; AChEI (%) 1 μM [5]: 62%
CC(NC(=O)Oc1cccc([C@H](C)N(C)C)c1)C12CC3CC(CC(C3)C1)C2 (stereo partly shown) [Compound 14, S-rivastigmine-rimantadine] |  | 13 | 4.5 | 77 | AChEI (%) 1 μM [5]: 28%
C[C@@H](c1cccc(OC(=O)N2CCC(=C3c4ccc(Cl)cc4CCc4cccnc43)CC2)c1)N(C)C [Compound 15, S-rivastigmine-desloratidine] |  | 6 | 12.5 | 36 | Max Tolerated Dose [3]: ≧100; minimal effective dose [1]: 3 mg/kg
C[C@@H](c1cccc(OC(=O)NC23CC4CC(CC(C4)C2)C3)c1)N(C)C [Compound 16, S-riva- amantadine] |  |  | 72.1 |  | 
C[C@@H](c1cccc(OC(=O)N[C@@]23CC4C[C@@](C)(C[C@@](C)(C4)C2)C3)c1)N(C)C [Compound 17, S-riva memantine] |  |  | 5.8 |  | 
CC(C)C[C@@H](CNC(=O)Oc1cccc([C@H](C)N(C)C)c1)CC(=O)O [Compound 18, S-riva pregabalin] |  |  | 24.9 |  | 
C[C@@H](c1cccc(OC(=O)NCC(CC(=O)O)c2ccc(Cl)cc2)c1)N(C)C (stereo partly shown) [Compound 19, S-riva baclofen] |  |  | 16.9 |  | 
C[C@@H](c1cccc(OC(=O)N2CCN(c3cc4c(cc3F)c(=O)c(C(=O)O)cn4C3CC3)CC2)c1)N(C)C [Compound 20, S-riva ciprofloxacin] |  |  | 53.6 |  | 
